Source: patent US5719145A, “Amidine derivatives and platelet aggregation inhibitor containing the same” (Mitsui Toatsu Chemicals, Inc., priority 1996, dated 1998)
Structures can show the parent of a compound that is named as a salt.

Legend:
[1] = system: guinea pig platelets (platelet-rich plasma); experiment: Inhibition against platelet aggregation ability after oral administration in guinea pig; type: in vivo; conditions: Cavia porcellus, 1 h, oral administration: 37 μmol/kg, blood collected after an hour, ADP 5 μM, read-out: Aggregation inhibiting rate (%)
Protocol: Experiment for inhibition against platelet aggregation ability after oral administration The specimen drug was dissolved or suspended at a concentration of 18.5 μmol/ml in a physiological saline containing 0.5% of Tween 80. […] A physiological saline containing 0.5% of Tween 80 was similarly administered as a control. […] The blood mixture was centrifuged at 800 r.p.m. for 20 minutes at room temperature to obtain PRP in the upper layer. The lower layer was further centrifuged at 3000 r.p.m. for 15 minutes to obtain PPP in upper layer. […] Platelet aggregation ability was measured according to the method for measuring in vitro platelet aggregation. […] HEMA TRACER 1 (manufactured by NKK Co.). After incubation of PRP at 37° C. for 2 minutes, a physiological saline (30 μl) was added. […] An inhibiting ratio was obtained by comparing the maximum aggregation of the specimen drug group with that of control.

[2] = system: guinea pig platelets (platelet-rich plasma); experiment: In vitro inhibition of platelet aggregation in guinea pig (ADP-induced, PRP); type: cell-based; conditions: Cavia porcellus, ADP final concentration 5 μM, read-out: Platelet aggregation inhibitory activity in guinea pig, IC50
Protocol: In vitro experiment of platelet aggregation inhibition
1. Inhibition of platelet aggregation in Guinea pig
Blood of male guinea pig was collected with an injection syringe which contains 3.8 % sodium citrate as an anticoagulant in a ratio of 1 volume to 9 volumes of the blood. Successively, the collected blood mixture was subjected to centrifugation at 120×g for 15 minutes at room temperature to obtain platelet-rich plasma (PRP). An aliquot of PRP was further subjected to centrifugation at 1,200×g for 15 minutes to obtain platelet-poor plasma (PPP). Numbers of the platelet in PRP were measured with an automatic platelet counter: Sysmex PL-100 (manufactured by Toa Iyodenshi Co.) and PRP was diluted with PPP so as to adjust a platelet concentration to be about 300,000 particles/ μl. Platelet aggregation was measured by the following procedure with a 6 channel aggregometer: HEMA TRACER 1 (manufactured by NKK Co.).
After incubation of 240 μl of PRP at 37° C. for 2 minutes, 30 μl of the solvent of specimen as a control or of the specimen in various concentrations was added to PRP. Further 2 minutes later, 30 μl of adenosine diphosphate (final concentration: 5μM) was added to induce platelet aggregation. An inhibition percentage was obtained by comparing the maximum aggregation of the specimen drug group with that of control. […]

SMILES	inhibition at 37 µmol/kg [1]	IC50 [2]
C#CCNC(=N)c1ccc(C(=O)Nc2ccc3c(c2)CC(CC(=O)OCC)CC3)cc1 (single isomer, unassigned) [Example 45, ethyl (-)-7-[[4-(N^2-propargylamidino)benzoyl]amino]-1,2,3,4-tetrahydronaphthalene-2-acetate hydrochloride]	> 90%	–
CCOC(=O)CC1CCc2ccc(NC(=O)c3ccc(C(=N)N4CCOCC4)cc3)cc2C1 (single isomer, unassigned) [Example 47, ethyl (-)-7-[[4-(morpholinoiminomethyl)benzoyl]amino]-1,2,3,4-tetrahydronaphthalene-2-acetate hydrochloride]	> 90%	–
C#CCNC(=N)c1ccc(C(=O)Nc2ccc3c(c2)CC(CC(=O)OCC)CO3)cc1 (single isomer, unassigned) [Example 49, ethyl (-)-6-[[4-(N^2-propargylamidino)benzoyl]amino]chroman-3-acetate hydrochloride]	> 90%	–
CCOC(=O)CC1COc2ccc(NC(=O)c3ccc(C(=N)N4CCOCC4)cc3)cc2C1 (single isomer, unassigned) [Example 51, hydrochloride]	> 90%	–
CCOC(=O)CC1CCc2ccc(NC(=O)c3ccc(C(=N)N4CCOCC4)cc3)cc2C1 (centres unmarked) [Example 1, ethyl 7-[[4-(morpholinoiminomethyl)benzoyl]amino]-1,2,3,4-tetrahydronaphthalene-2-acetate hydrochloride]	> 90%	180 nM
CCOC(=O)CC1COc2ccc(NC(=O)c3ccc(C(=N)N4CCOCC4)cc3)cc2C1 (centres unmarked) [Example 4, ethyl 6-[[4-(morpholinoiminomethyl)benzoyl]amino]chroman-3-acetate hydrochloride]	> 90%	120 nM
CCOC(=O)CC1COc2cc(NC(=O)c3ccc(C(=N)N4CCOCC4)cc3)ccc2C1 (centres unmarked) [Example 8, ethyl 7-[[4-(morpholinoiminomethyl)benzoyl]amino]chroman-3-acetate hydrochloride]	> 90%	–
CCOC(=O)CC1CCc2ccc(NC(=O)c3ccc(C(=N)N4CCSCC4)cc3)cc2C1 (centres unmarked) [Example 12, ethyl 7-[[4-(thiomorpholinoiminomethyl)benzoyl]amino]-1,2,3,4-tetrahydronaphthalene-2-acetate hydrochloride]	> 90%	–
CCOC(=O)CC1CCc2ccc(NC(=O)c3ccc(C(=N)N4CCN(C)CC4)cc3)cc2C1 (centres unmarked) [Example 14, ethyl 7-[[4-(4-methylpiperazinoiminomethyl)benzoyl]amino]-1,2,3,4-tetrahydronaphthalene-2-acetate dihydrochloride]	> 90%	66 nM
CCOC(=O)CC1CCc2ccc(NC(=O)c3ccc(C(=N)N4CCCCC4)cc3)cc2C1 (centres unmarked) [Example 17, ethyl 7-[[4-(piperidinoiminomethyl)benzoyl]amino]-1,2,3,4-tetrahydronaphthalene-2-acetate hydrochloride]	> 90%	270 nM
CCOC(=O)CC1CCc2ccc(NC(=O)c3ccc(C(=N)N4CCCC4)cc3)cc2C1 (centres unmarked) [Example 21, ethyl 7-[[4-(pyrrolidinoiminomethyl)benzoyl]amino]-1,2,3,4-tetrahydronaphthalene-2-acetate hydrochloride]	> 90%	94 nM
CCOC(=O)CC1CCc2ccc(NC(=O)c3ccc(C(=N)N4CCCCCC4)cc3)cc2C1 (centres unmarked) [Example 22, ethyl 7-[[4-(homopiperidinoiminomethyl)benzoyl]amino]-1,2,3,4-tetrahydronaphthalene-2-acetate hydrochloride]	> 90%	250 nM
C#CCN=C(N)c1ccc(C(=O)Nc2ccc3c(c2)CC(CC(=O)OCC)CC3)cc1 (centres unmarked) [Example 24, ethyl 7-[[4-(N^2-propargylamidino)benzoyl]amino]-1,2,3,4-tetrahydronaphthalene-2-acetate]	> 90%	–
C#CCNC(=N)c1ccc(C(=O)Nc2ccc3c(c2)CC(CC(=O)OCC)CO3)cc1 (centres unmarked) [Example 26, ethyl 6-[[4-(N^2-propargylamidino)benzoyl]amino]chroman-3-acetate hydrochloride]	> 90%	190 nM
CCOC(=O)CC1CCc2ccc(NC(=O)c3ccc(C(=N)NCc4ccco4)cc3)cc2C1 (centres unmarked) [Example 29, ethyl 7-[[4-[N^2-(2-furfuryl)amidino]benzoyl]amino]-1,2,3,4-tetrahydronaphthalene-2-acetate hydrochloride]	> 90%	–
CCOC(=O)CC1COc2ccc(NC(=O)c3ccc(C(=N)NCc4ccco4)cc3)cc2C1 (centres unmarked) [Example 31, ethyl 6-[[4-[N^2-(2-furfuryl)amidino]benzoyl]amino]chroman-3-acetate hydrochloride]	> 90%	140 nM
C#CCN(C)C(=N)c1ccc(C(=O)Nc2ccc3c(c2)CC(CC(=O)OCC)CC3)cc1 (centres unmarked) [Example 34, ethyl 7-[[4-(N^1-methyl-N^2-propargylamidino)benzoyl]amino]-1,2,3,4-tetrahydronaphthalene-2-acetate hydrochloride]	> 90%	–
CCOC(=O)CC1CCc2ccc(NC(=O)c3ccc(C(=N)NCc4ccccn4)cc3)cc2C1 (centres unmarked) [Example 38, ethyl 7-[[4-[N^2-(2-picolyl)amidino]benzoyl]amino]-1,2,3,4-tetrahydronaphthalene-2-acetatedihydrochloride]	> 90%	–
N=C(NCc1ccccn1)c1ccc(C(=O)Nc2ccc3c(c2)CC(CC(=O)O)CC3)cc1 (centres unmarked) [Example 39, 7-[[4-[N^2-(2-picolyl)amidino]benzoyl]amino]-1,2,3,4-tetrahydronaphthalene-2-acetic acid dihydrochloride]	–	140 nM
CCOC(=O)CC1CCc2ccc(NC(=O)c3ccc(C(=N)NCc4ccncc4)cc3)cc2C1 (centres unmarked) [Example 41, ethyl 7-[[4-[N^2-(4-picolyl)amidino]benzoyl]amino]-1,2,3,4-tetrahydronaphthalene-2-acetatedihydrochloride]	–	120 nM
CCOC(=O)CC1CCc2ccc(NC(=O)c3ccc(C(=N)NCCc4ccncc4)cc3)cc2C1 (centres unmarked) [Example 42, ethyl 7-[[4-[N^2-[2-(4-pyridyl)ethyl]amidino]benzoyl]amino]-1,2,3,4-tetrahydronaphthalene-2-acetate dihydrochloride]	–	130 nM
CCOC(=O)CC1CCc2ccc(NC(=O)c3ccc(C(=N)N4CCN(c5ccccc5)CC4)cc3)cc2C1 (centres unmarked) [Example 43, dihydrochloride]	–	140 nM
CCOC(=O)CC1CCc2ccc(NC(=O)c3ccc(C(=N)N4CCN(c5ccccn5)CC4)cc3)cc2C1 (centres unmarked) [Example 44, trihydrochloride]	–	88 nM
N=C(N)c1ccc(C(=O)Nc2ccc3c(c2)CC(CC(=O)O)CC3)cc1 (centres unmarked) [Ref. Example 2, 7-[(4-amidinobenzoyl)amino]-1,2,3,4-tetrahydronaphthalene-2-acetic acid hydrochloride, reference compound]	–	370 nM
N=C(N)c1ccc(C(=O)Nc2ccc3c(c2)CN(CC(=O)O)CC3)cc1 [Ref. Example 6, 7-[(4-amidinobenzoyl)amino]-1,2,3,4-tetrahydroisoquinoline-2-acetic acid dihydrochloride, reference compound]	–	6600 nM
CCOC(=O)CC1CCc2ccc(NC(=O)c3ccc(C(=N)N)cc3)cc2C1 (centres unmarked) [Reference Example 1, ethyl 7-[(4-amidinobenzoyl)amino]-1,2,3,4-tetrahydronaphthalene-2-acetate hydrochloride, reference compound]	41%	–
CCOC(=O)CC1COc2ccc(NC(=O)c3ccc(C(=N)N)cc3)cc2C1 (centres unmarked) [Reference Example 3, ethyl 6-[(4-amidinobenzoyl)amino]chroman-3-acetate hydrochloride, reference compound]	39%	–
CCOC(=O)CC1COc2cc(NC(=O)c3ccc(C(=N)N)cc3)ccc2C1 (centres unmarked) [Reference Example 7, ethyl 7-[(4-amidinobenzoyl)amino]chroman-3-acetate hydrochloride, reference compound]	24%	–
CCCCOC(=O)N=C(N)c1ccc(C(=O)Nc2ccc3c(c2)CC(CC(=O)OCC)CC3)cc1 (centres unmarked) [Reference Example 10, ethyl 7-[[4-[N^1-(n-butoxycarbonyl)amidino]benzoyl]amino]-1,2,3,4-tetrahydronaphthalene-2-acetate, reference compound]	59%	–
CCOC(=O)CN1CCc2ccc(NC(=O)c3ccc(C(=N)N)cc3)cc2C1 [Reference example 5, ethyl 7-[(4-amidinobenzoyl)amino]-1,2,3,4-tetrahydroisoquinoline-2-acetate dihydrochloride, reference compound]	10%	–
